According to patent publication US5612474A, “Acid labile immunoconjugate intermediates” (Eli Lilly and Company, priority 1994, dated 1997):
In brackets after ≈: the same amount, converted by molar mass.

How the values were obtained:
[1] = tested on: LS-174T human colon carcinoma; assay: Cytotoxicity assay of immunoconjugates, 3H-leucine uptake, 48 hours; assay type: cell-based; conditions: LS174T, LS 174T cells, 48 hours incubation, concentrations in terms of drug contained in conjugate
Description: Table III uses several abbreviations which are defined as follows. The terms D612, COL-1, CC83, and CC49 refer to specific murine monoclonal antibodies which are described in detail in the Antibody section of the Detailed Description. […] "CR#" is an abbreviation for conjugation ratio. "MIR" refers to the molar input ratio of the linker-drug relative to the antibody.

CCRF-CEM cells = assay: In vitro antitumor activity / growth inhibition of CCRF-CEM cells, 72 hours; assay type: cell-based; conditions: Homo sapiens, serum-free UltraCHO media, read-out: IC50 (50% inhibition of growth)
Experimental: The in vitro data were obtained using CCRF-CEM cells, a human leukemia cell line. Foley et al., Cancer, 18:522 (1965). These cells were grown in albumin-free UltraCHO® media (BioWhittaker, Inc., Walkersville, Md.) using standard techniques. See, e.g., G. B. Grindey, et al., Journal of Molecular Pharmacology, 16:601 (1979). Dose-response curves were generated for various compounds to determine the concentration required for 50% inhibition of growth (IC50). Cluster plates were prepared in duplicate with the compound at various concentrations. Test compounds were dissolved initially in DMSO at a concentration of 4 mg/ml and further diluted with solvent to the desired concentration. Cells in serum-free UltraCHO media were added to the well at a final concentration of 4.8×10^4 cells/well in a total volume of 2.0 ml. After 72 hours of incubation (95% air, 5% CO2), cell numbers were determined on a ZBI Coulter counter. Cell number for indicated controls at the end of incubation was usually (4-6)×10^5 cells/well. Cell viability was also measured by staining with 3-[4,5-dimethylthiazol-2-yl]-2,5-diphenyl-tetrazolium bromide (MTT) using standard techniques. R. I. Freshhey, Culture of Animal Cells: A Manual of Basic Technique, 253-354 (2d ed. 1987).
Column 1 refers to the example number of the compound tested; Column 2 depicts the in vitro cytoxicity against CCRF-CEM cells by relating the concentration of the test compound required for 50% inhibition of growth (IC50) of the cells in the well.

[2] = tested on: HC-1 human colon carcinoma xenograft; assay: Antitumor activity against HC-1 human colon carcinoma xenografts in nude mice; assay type: in vivo, human tumor in CD1 Nu/Nu mice; conditions: for Activity (overall): overall activity over all doses
Description: One of the tumor models used for showing the anti-neoplastic activity of the prodrugs of this invention were the human colon xenografts, HC-1 human colon xenograft. This tumor model was obtained from the Division of Cancer Treatment, National Cancer Institute, Tumor Bank.
First passage tumors were stored in liquid nitrogen, using standard techniques. The transplanted tumor was reestablished from the Tumor Bank every six months or as needed. The tumor was maintained by serial passage twice weekly in nude mice.
In the procedures utilized here, the tumor was removed from passage animals and minced into 1- to 3-mm cubic fragments using sterile techniques. Tumor pieces were checked for sterility using both Antibiotic Medium 1 and Brain Heart Infusion (Difco, Detroit, Mich.). The xenograft tumor pieces were implanted into the recipient CD1 Nu/Nu mice subcutaneously in an axillary site by trochar.
Drug therapy on the appropriate schedule was initiated 14 days after tumor implantation for the mice bearing the xenograft tumors. The compound being tested was mixed with 2.5% Emulphor EL620 from GAP Corporation (1:40 dilution in 0.9% saline). The total dosage volume for each administration was 0.5 ml. All animals were weighed at the beginning and end of administration of the subject compounds. Food and water were provided ad libitum.
Each control group and each dosage level of the treated groups consisted of 9 or 10 mice selected at random from the pool of implanted animals. The formulations were administered intraperitoneally. Compounds were dosed on days 1, 4, 7, and 10 for all prodrugs except for MMeT which was dosed on days 1,5, and 9.
The tumor was measured five days after treatment ended with two dimensional measurements (width and length) of the tumor taken using digital electronic calipers interfaced to a microcomputer. J. P. Worzalla, et al., Investigational New Drugs, 8:241-251 (1990). Tumor weights were calculated from these measurements using the following formula: [formula] At least one control group of an equal number of mice was treated with the same volume of 2.5% Emulphor only. The percent inhibition is determined by subtracting the ratio of the mean tumor size of the test group relative to the control group from one and multiplying the result by 100.
The results of several experiments in mice bearing the HC-1 human colon carcinoma when the Formula III compounds were administered orally are provided in Table V. Row 1 describes the particular compound being tested. Row 15 describes the overall activity of the compound. Column 1 gives the dosage level of the compound of Formula III and ADDFA in mg/kg. The second column gives the percent inhibition of tumor growth by the ADDFA given systemically. Colums 3 through 7 gives the percent inhibition of tumor growth of the compounds of Formula III.

[3] = Cardiotoxicity / toxicity of free drug versus trityl prodrug (no method described); conditions: for use in oncolytic therapy
[4] = Release studies: rate of free drug release from isopropylamide linker-drug by NMR; assay type: physicochemical
Experimental: The isopropylamide linker-drug (2 mg) was dissolved in 0.3 ml of dry deuterated methanol (CD3 OD). A solution of potassium phosphate buffer in deuteratured water (D2 O) (0.2 ml) of appropriate pH was added. The resulting solution was transferred to an NMR tube and heated at 37° C. and NMR spectra were recorded periodically. The rate of appearance of free drug and the rate of disappearance of the starting material were calculated from the peak integrals at: […]
NMR spectra (CD3 OD/0.1M KD2 PO4)

[5] = pH 5.40, CD3OD/0.1M KD2PO4, 37° C.
[6] = pH 6.40, CD3OD/0.1M KD2PO4, 37° C.
[7] = pH 7.40, CD3OD/0.1M KD2PO4, 37° C., extrapolated

Nc1nc(N)c2ncn([C@@H]3O[C@H](CO)[C@@H](O)C3(F)F)c2n1 [ADDFA, 2-Amino-2'-deoxy-2',2'-difluoroadenosine, reference compound]
IC50 [1]: 0.26 µg/mL (≈ 0.86 µM)
IC50 (CCRF-CEM cells): 0.024 µg/mL (≈ 0.0794 µM)
Percent Inhibition ([2]; 17.5 mg/kg): 100%
Percent Inhibition ([2]; 20.0 mg/kg): 100%
Percent Inhibition ([2]; 25.0 mg/kg): 100%
Percent Inhibition ([2]; 32.5 mg/kg): 100%
Percent Inhibition ([2]; 35.0 mg/kg): 100%
Percent Inhibition ([2]; 40.0 mg/kg): 100%
Percent Inhibition ([2]; 50.0 mg/kg): 100%
Percent Inhibition ([2]; 65.0 mg/kg): 100%
Percent Inhibition ([2]; 70.0 mg/kg): 100%
Percent Inhibition ([2]; 80.0 mg/kg): 100%
Percent Inhibition ([2]; 100.0 mg/kg): 100%
Percent Inhibition ([2]; 130.0 mg/kg): 100%
Activity (overall) [2]: +++ (95-100% Inhibition)
cardiotoxicity [3]: too much cardiotoxicity

COc1ccc(C(Nc2nc(N)nc3c2ncn3[C@@H]2O[C@H](CO)[C@@H](O)C2(F)F)(c2ccc(OC)cc2)c2ccc(C(=O)NC(C)C)cc2)cc1 [DMT, N-Isopropyl-4-[bis-(4-methoxyphenyl)-6-N-[2-amino-9-(2'-deoxy-2',2'-difluoro-β-ribofuranosyl)purinyl]methyl]benzamide]
t1/2 [4, 5]: 3.71 h
t1/2 [4, 6]: 14.8 h
t1/2 ([4]; pH 7.40, CD3OD/0.1M KD2PO4, 37° C.): 146.3 h
IC50 (CCRF-CEM cells): 0.078 µg/mL (≈ 0.113 µM)
Percent Inhibition ([2]; 25.0 mg/kg): 97%
Percent Inhibition ([2]; 50.0 mg/kg): 99%
Percent Inhibition ([2]; 100.0 mg/kg): 99%
Activity (overall) [2]: +++ (95-100% Inhibition)

COc1ccc(C(Nc2nc(N)nc3c2ncn3[C@@H]2O[C@H](CO)[C@@H](O)C2(F)F)(c2ccccc2)c2ccc(C(=O)NC(C)C)cc2)cc1 (stereo partly shown) [MMT]
t1/2 [4, 5]: 16.7 h
t1/2 ([4]; pH 6.40, CD3OD/0.1M KD2PO4, 37° C., extrapolated): 547 h
t1/2 [4, 7]: 800 h
IC50 (CCRF-CEM cells): 0.1 µg/mL (≈ 0.152 µM)
Percent Inhibition ([2]; 32.5 mg/kg): 95%
Percent Inhibition ([2]; 65.0 mg/kg): 96%
Percent Inhibition ([2]; 130.0 mg/kg): 93%
Activity (overall) [2]: +++ (95-100% Inhibition)

COc1ccc(C(Nc2nc(N)nc3c2ncn3[C@@H]2O[C@H](CO)[C@@H](O)C2(F)F)(c2ccc(C)cc2)c2ccc(C(=O)NC(C)C)cc2)cc1 (stereo partly drawn) [MMeT, N-Isopropyl-4-[4-methoxyphenyl-4'methylphenyl-6-N-[2-amino-9-(2'-deoxy-2',2'-difluoro-β-ribofuranosyl)purinyl]methyl]benzamide]
IC50 (CCRF-CEM cells): 0.1 µg/mL (≈ 0.148 µM)
Percent Inhibition ([2]; 20.0 mg/kg): 95%
Percent Inhibition ([2]; 40.0 mg/kg): 98%
Percent Inhibition ([2]; 80.0 mg/kg): 98%
Activity (overall) [2]: +++ (95-100% Inhibition)

Cc1ccc(C(Nc2nc(N)nc3c2ncn3[C@@H]2O[C@H](CO)[C@@H](O)C2(F)F)(c2ccccc2)c2ccc(C(=O)NC(C)C)cc2)cc1 (stereo partly shown) [MeT]
IC50 (CCRF-CEM cells): 0.8 µg/mL (≈ 1.24 µM)
Percent Inhibition ([2]; 20.0 mg/kg): 41%
Percent Inhibition ([2]; 40.0 mg/kg): 58%
Percent Inhibition ([2]; 80.0 mg/kg): 92%
Activity (overall) [2]: ++ (80-94% Inhibition)

CC(C)NC(=O)c1ccc(C(Nc2nc(N)nc3c2ncn3[C@@H]2O[C@H](CO)[C@@H](O)C2(F)F)(c2ccccc2)c2ccccc2)cc1 [T, N-Isopropyl-4-[bis-phenyl-6-N-[2-amino-9-(2'-deoxy-2',2'-difluoro-β-ribofuranosyl)purinyl]methyl]benzamide]
fragmentation under pH conditions used ([4]; pH 5.40, 6.40, 7.40, up to t = 800): no fragmentation
IC50 (CCRF-CEM cells): 1.7 µg/mL (≈ 2.7 µM)
Percent Inhibition ([2]; 17.5 mg/kg): 14%
Percent Inhibition ([2]; 35.0 mg/kg): 28%
Percent Inhibition ([2]; 70.0 mg/kg): 04%
Activity (overall) [2]: - (<60% Inhibition)

COc1ccc(C(Nc2nc(N)nc3c2ncn3[C@@H]2O[C@H](CO)[C@@H](O)C2(F)F)(c2ccc(OC)cc2)c2cccc(C(=O)NC(C)C)c2)cc1 [mDMT, N-Isopropyl-3-[bis-(4-methoxyphenyl)-6-N-[2-amino-9-(2'-deoxy-2',2'-difluoro-β-ribofuranosyl)purinyl]methyl]benzamide]
t1/2 [4, 5]: 2.35 h
t1/2 [4, 6]: 23.3 h
t1/2 [4, 7]: 133.3 h
IC50 (CCRF-CEM cells): 0.084 µg/mL (≈ 0.122 µM)
